Read-outs that look alike come from different tables or passages of the source.
Assays:
[1] = molecular target: T1, apelin receptor (APJ) (Homo sapiens, UniProt P35414); assay: in vitro apelin agonist activity (methods of Giddings et al., Apelin-13 as positive control); type: cell-based
T1 sequence (P35414 1-380): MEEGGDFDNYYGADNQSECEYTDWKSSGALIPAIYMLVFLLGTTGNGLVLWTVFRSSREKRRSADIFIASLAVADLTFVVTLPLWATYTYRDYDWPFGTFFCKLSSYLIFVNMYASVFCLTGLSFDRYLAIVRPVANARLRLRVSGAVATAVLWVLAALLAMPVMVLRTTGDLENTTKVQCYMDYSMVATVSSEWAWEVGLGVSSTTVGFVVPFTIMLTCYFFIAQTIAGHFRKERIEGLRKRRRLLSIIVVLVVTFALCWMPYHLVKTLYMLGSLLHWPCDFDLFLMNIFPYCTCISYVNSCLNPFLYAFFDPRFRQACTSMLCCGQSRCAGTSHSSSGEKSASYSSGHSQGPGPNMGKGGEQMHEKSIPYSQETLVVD
Excerpt: The compounds above were studied for their in vitro activity as apelin agonists using the methods described by Giddings et al. Giddings et al., 2010 Int J High Thro Screen. 1:39-47, the contents of which are hereby incorporated by reference in its entirety.

[2] = system: C57BL/6 mice; assay: in vivo blood pressure lowering activity, non-invasive blood pressure and heart rate after IP injection; settings: Apelin-13 at 0.4 nmol/kg
Procedure: The compounds were also assayed for blood pressure activity using C57BL/6 mice and the procedure described by Tatemoto et al. The novel peptide apelin lowers blood pressure via a nitric oxide-dependent mechanism. Regul Pept. 2001; 99: 87-92. […] Studies have been published citing reductions in blood pressure occur following peptide apelin administration. Apelin-13 was used as a positive control. Knockout C57BL/6 mice lacking APJ have cardiovascular deficiencies. […] Charo et al. Am J Physiol Heart Circ Physiol. 2009 November 297(5):[…] et al. J Physiol Biochem. 2007 December; 63(4):359-73. Blood pressure measurements in these species of mice have been reported in the literature. […] et al. Am J Physiol Heart Circ Physiol. 2003 February; 284(2):[…]-74. On the first day of the study, 11 animals were treated with apelin-13, 11 with vehicle alone, and 11 as sham controls. The two later groups were used to determine effects (if any) of the vehicle or injection alone on blood pressure (BP). The experiment was conducted as follows: The animals were restrained and a baseline measurement taken for 5 min. Animals were injected and immediately monitored for 15 minutes. The effect of test agents should be apparent within this time. Tatemoto et al. reported that the effects of Apelin-13 were apparent within minutes. Tatemoto et al. 2001 Immediately following dosing, blood pressure (diastolic, systolic and mean pressure) and heart rate for each animal was recorded for up to 15 minutes using a Kent Scientific CODA Non-Invasive Blood Pressure System. […] On day 2-5 a similar protocol was used in increasing doses. The animals were randomized daily in three groups of 11 to receive either of the two experimental compounds by IP injection. […] At the end of the 5-day dosing period, all animals were humanely euthanized. [table]

[3] = apelin agonist activity, Giddings et al. method, read-out: agonist activity (EC50)

Compound | EC50 [1, 3] | other results
COc1cccc(OC)c1-c1cc(C(=O)N[C@H](C(=O)O)C2CCCCC2)nn1C1CCCCC1 [compound 93, (S)-2-Cyclohexyl-2-(1-cyclohexyl-5-(2,6-dimethoxyphenyl)-1H-pyrazole-3-carboxamido)acetic acid] | – | EC50 [1]: < 10 µM
COC(=O)CNC(=O)C[C@H](CC(C)C)NC(=O)c1cc(-c2c(OC)cccc2OCc2ccccc2)n(C2CCCCC2)n1 [compound 127, Methyl 2-((3S)-3-(5-(2-(benzyloxy)-6-methoxyphenyl)-1-cyclohexyl-1H-pyrazole-3-carboxamido)-5-methylhexanamido)acetate] | < 10 µM | –
COc1cccc(OCc2ccccc2)c1-c1cc(C(=O)N[C@H](CC(=O)NCc2ncco2)CC(C)C)nn1C1CCCCC1 [compound 134, 5-(2-(Benzyloxy)-6-methoxyphenyl)-1-cyclohexyl-N-((S)-5-methyl-1-((oxazol-2-ylmethyl)amino)-1-oxohexan-3-yl)-1H-pyrazole-3-carboxamide] | < 10 µM | –
CCCCCCNC(=O)C[C@H](CC(C)C)NC(=O)c1cc(-c2c(OC)cccc2OC)n(CC(C)C)n1 [compound 154, (S)-5-(2,6-Dimethoxyphenyl)-N-(1-(hexylamino)-5-methyl-1-oxohexan-3-yl)-1-isobutyl-1H-pyrazole-3-carboxamide] | < 10 µM | –
COc1cccc(OC)c1-c1cc(C(=O)N[C@H](CC(=O)O)CC(C)C)nn1C1CCCCC1 [compound 79, (S)-3-(1-Cyclohexyl-5-(2,6-dimethoxyphenyl)-1H-pyrazole-3-carboxamido)-5-methylhexanoic acid] | < 10 µM | –
COc1cccc(OC)c1-c1cc(C(=O)N[C@H](CC(=O)NC2CC2)CC(C)C)nn1CC(C)C [compound 172] | < 10 µM | –
CCCNC(=O)C[C@H](CC(C)C)NC(=O)c1cc(-c2c(OC)cccc2OC)n(CC(C)C)n1 [compound 157, (S)-5-(2,6-dimethoxyphenyl)-1-isobutyl-N-(5-methyl-1-oxo-1-(propylamino)hexan-3-yl)-1H-pyrazole-3-carboxamide] | < 10 µM | –
COc1cccc(OC)c1-c1cc(C(=O)N[C@H](CC(N)=O)CC(C)C)nn1-c1ccc(F)cc1 [compound 65] | < 10 µM | –
COc1c(F)cc(F)c(OC)c1-c1cc(C(=O)N[C@H](CC(=O)O)CC(C)C)nn1CC(C)C [compound 167] | < 10 µM | –
CCCCCNC(=O)C[C@H](CC(C)C)NC(=O)c1cc(-c2c(OC)cccc2OC)n(CC(C)C)n1 [compound 156, (S)-5-(2,6-Dimethoxyphenyl)-1-isobutyl-N-(5-methyl-1-oxo-1-(pentylamino)hexan-3-yl)-1H-pyrazole-3-carboxamide] | < 10 µM | –
COC(=O)COc1cccc(OC)c1-c1cc(C(=O)N[C@H](CC(=O)O)CC(C)C)nn1-c1ccc(F)cc1 [compound 86] | < 10 µM | –
COc1cccc(OC)c1-c1cc(C(=O)N[C@H](CC(=O)NCC(=O)O)CC(C)C)nn1C1CCCCC1 [compound 81, (S)-2-(3-(1-Cyclohexyl-5-(2,6-dimethoxyphenyl)-1H-pyrazole-3-carboxamido)-5-methylhexanamido)acetic acid] | < 10 µM | –
COc1cccc(OCc2ccccc2)c1-c1cc(C(=O)N[C@H](CC(=O)O)CC(C)C)nn1C1CCCCC1 [compound 126, (3S)-3-(5-(2-(Benzyloxy)-6-methoxyphenyl)-1-cyclohexyl-1H-pyrazole-3-carboxamido)-5-methylhexanoic acid] | < 10 µM | –
COc1cccc(OC)c1-c1cc(C(=O)N[C@H](CC(=O)O)CC(C)C)nn1CC1CCCCC1 [compound 95, (S)-3-(1-(Cyclohexylmethyl)-5-(2,6-dimethoxyphenyl)-1H-pyrazole-3-carboxamido)-5-methylhexanoic acid] | < 10 µM | –
COC(=O)CNC(=O)C[C@H](CC(C)C)NC(=O)c1cc(-c2c(OC)cccc2OC)n(-c2ccc(F)cc2)n1 [compound 137] | < 10 µM | –
COC(=O)C[C@H](CC(C)C)NC(=O)c1cc(-c2c(OC)cccc2OC)n(CC(C)C)n1 [compound 164] | < 10 µM | –
COc1cccc(OC)c1-c1cc(C(=O)N[C@H](C(=O)O)C2CCCCC2)nn1CC(C)C [compound 169, (S)-2-Cyclohexyl-2-(5-(2,6-dimethoxyphenyl)-1-isobutyl-1H-pyrazole-3-carboxamido)acetic acid] | – | EC50 [1]: < 10 µM
COc1cccc(OC)c1-c1cc(C(=O)N[C@H](C(=O)NCC(=O)O)C2CCCCC2)nn1-c1ccc(F)cc1 [compound 70] | – | EC50 [1]: < 10 µM
CNC(=O)C[C@H](CC(C)C)NC(=O)c1cc(-c2c(OC)cccc2OC)n(CC(C)C)n1 [compound 141, (S)-5-(2,6-Dimethoxyphenyl)-1-isobutyl-N-(5-methyl-1-(methylamino)-1-oxohexan-3-yl)-1H-pyrazole-3-carboxamide] | < 10 µM | –
COc1cccc(OC)c1-c1cc(C(=O)N[C@H](CC(=O)Nc2ccc(F)cc2)CC(C)C)nn1CC(C)C [compound 163, (S)-5-(2,6-Dimethoxyphenyl)-N-(1-((4-fluorophenyl)amino)-5-methyl-1-oxohexan-3-yl)-1-isobutyl-1H-pyrazole-3-carboxamide] | < 10 µM | –
COc1cccc(OC)c1-c1cc(C(=O)N[C@@H](CC2CCCCC2)C(=O)O)nn1CC(C)C [compound 204] | – | EC50 [1]: < 10 µM
COc1cccc(OC)c1-c1cc(C(=O)N[C@@H](CC(=O)O)CC(C)C)nn1-c1ccc(F)cc1 [compound 67] | < 10 µM | –
CCCCNC(=O)C[C@H](CC(C)C)NC(=O)c1cc(-c2c(OC)cccc2OCc2ccccc2)n(C2CCCCC2)n1 [compound 133, 5-(2-(Benzyloxy)-6-methoxyphenyl)-N-((S)-1-(butylamino)-5-methyl-1-oxohexan-3-yl)-1-cyclohexyl-1H-pyrazole-3-carboxamide] | < 10 µM | –
Apelin-13 [reference compound] | – | lowers blood pressure by [2]: ~10%
CCNC(=O)C[C@H](CC(C)C)NC(=O)c1cc(-c2c(OC)cccc2OC)n(CC(C)C)n1 [compound 161, (S)-5-(2,6-Dimethoxyphenyl)-N-(1-(ethylamino)-5-methyl-1-oxohexan-3-yl)-1-isobutyl-1H-pyrazole-3-carboxamide] | < 10 µM | –
COc1cccc(OCc2ccccc2)c1-c1cc(C(=O)N[C@H](CC(=O)NCc2ccccc2)CC(C)C)nn1C1CCCCC1 [compound 132] | < 10 µM | –

Continued, in another order:

EC50 [1, 3] | Compound | other results
< 10 µM | COc1cccc(OC)c1-c1cc(C(=O)N[C@H](CC(=O)NC2CCCC2)CC(C)C)nn1CC(C)C [compound 185] | –
< 10 µM | COCCN(C)C(=O)[C@H](CCC1CCCCC1)NC(=O)c1cc(-c2c(OC)cccc2OC)n(CC(C)C)n1 [compound 256] | –
< 10 µM | COC(=O)CNC(=O)CC(NC(=O)c1cc(-c2c(OC)cccc2OC)n(-c2ccc(F)cc2)n1)C1CCCCC1 (stereo not shown) [compound 258] | –
< 10 µM | COC(=O)CNC(=O)C[C@H](CC(C)C)NC(=O)c1cc(-c2c(OC)cccc2OC)n(C2CCCC2)n1 [compound 184] | –
< 10 µM | COC(=O)CN(C)C(=O)C[C@H](CC(C)C)NC(=O)c1cc(-c2c(OC)cccc2OC)n(CC(C)C)n1 [compound 218] | –
< 10 µM | COC(=O)CNC(=O)C[C@H](CC(C)C)NC(=O)c1cc(-c2c(OC)cccc2OC)n(CC(C)(C)C)n1 [compound 187] | –
< 10 µM | CNC(=O)CNC(=O)C[C@H](CC(C)C)NC(=O)c1cc(-c2c(OC)cccc2OC)n(CC(C)C)n1 [compound 176] | –
< 10 µM | COc1cccc(OC)c1-c1cc(C(=O)N[C@H](CC(=O)O)CC(C)C)nn1CC1CC1 [compound 181] | –
< 10 µM | COc1cccc(OC)c1-c1cc(C(=O)N[C@H](CC(=O)NCC(=O)O)CC(C)C)nn1CC(C)C [compound 174] | –
< 10 µM | CCOC(=O)CCNC(=O)[C@H](CC(C)C)NC(=O)c1cc(-c2c(OC)cccc2OC)n(CC(C)C)n1 [compound 191] | –
< 10 µM | C=C[C@@H](CC(=O)NC1CCC1)NC(=O)c1cc(-c2c(OC)cccc2OC)n(C2CCCC2)n1 [compound 263] | –
< 10 µM | COc1cccc(OC)c1-c1cc(C(=O)NC(CC(=O)O)C2CCCCC2)nn1-c1ccc(F)cc1 (stereo not shown) [compound 257] | –
< 10 µM | CCCNC(=O)[C@H](CCc1ccccc1)NC(=O)c1cc(-c2c(OC)cccc2OC)n(CC(C)C)n1 [compound 225] | –
< 10 µM | CCC(O)CNC(=O)C[C@H](CCN1CCCCC1)NC(=O)c1cc(-c2c(OC)cccc2OC)n(CC(C)C)n1 (stereo partly shown) [compound 245] | –
